{"source": "patent US6890727B2", "about": "“Diagnostic assay for Alzheimer's disease: assessment of Aβ abnormalities” (The General Hospital Corporation, priority 1994, dated 2005)", "key": {"[1]": {"system": "trypsin", "experiment": "Tryptic digestion of Aβ after incubation with Zn2+", "format": "biochemical", "conditions": "Zn^2+ 200 μM", "procedure": "(§1) Tryptic Digestion of Aβ-Aβ1-40 (13.9 μg) was incubated with Zn^2+ ([…] in blocking buffer, 1 h, 37° C.) and then digested with trypsin (12 ng, 3 h, 37° C.). The reaction was stopped by adding SDS sample buffer containing phenylmethylsulfonyl fluoride (1 mM), boiling the samples (5 min), and applying the samples to Tris/Tricine gel electrophoresis and transfer. The blot was washed with EDTA, Coomassie-stained, incubated with ^65Zn^2+, individual bands were excised, assayed for ^65Zn^2+ binding, and N-terminal sequenced to confirm the identity of the digestion products. The effects of Zn^2+ (up to 100 μM in TBS) on the activity of trypsin, itself, were assayed by assay of Z-Arg-amido-4-methylcoumarin (Sigma) fluorescent cleavage product and determined to be negligible.\n(FIG. 4a) depicts a blot of tryptic digests of Aβ (13.9 μg) after incubation with increasing concentrations of zinc (lane labels, in micromolar), stained by Coomassie Blue. […] The migration of the low molecular size markers (STD) are indicated (in kilodaltons) on the right. (FIG. 4b) depicts ^65Zn^2+ binding to Aβ tryptic digestion products. The blot in 4a was incubated with ^65Zn^2+, the visible bands excised, and the bound counts for each band determined."}, "[2]": {"molecular_target": "T1, human Aβ1-40 (Homo sapiens, UniProt P05067)", "T1 construct": "made in house; host or cells: chemical synthesis (solid-phase Fmoc)", "T1 sequence (P05067 672-711)": "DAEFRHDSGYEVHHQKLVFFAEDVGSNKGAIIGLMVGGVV", "experiment": "Human Aβ1-40 aggregation (0.2μ filtration) after incubation with various metal ions", "format": "physicochemical", "conditions": "metal ions 3 μM, equimolar basis, peptide 1.6 μM", "excerpt": "The atomic number of the metal species is indicated. […] Data points are in duplicate."}, "[3]": {"experiment": "65Zn2+ binding to immobilized peptide (dot-blot, Scatchard competition analysis)", "conditions": "unlabeled metal ions 50 μM total", "procedure": "^65Zn^2+ Binding Studies—Dissolved peptides (1.2 nMol, unless other wise stated) were dot-blotted onto polyvinylidene difluoride membrane (0.2-μm pore size; Pierce Chemical Co.), washed twice with chelating buffer (200 μl×100 mM NaCl, 20 mM Tris-HCl, 1 mM EDTA, pH 7.4), then five times with blocking buffer (200 μl×100 mM NaCl, 20 mM Tris-HCl, 1 mM MnCl2, pH 7.4), and then incubated (60 min, 20° C.) with ^65Zn (unless otherwise stated 130,000 cpm, […] ^65ZnCl2 in 200 μl of blocking buffer±competing metal ion chloride). The dot-blot was then washed with blocking buffer (5×200 μl), the dot excised, placed in a test tube, and assayed by γ-counting (11% efficiency). The equilibration volume for stoichiometry estimates was regarded as 6×200 μl. The 214 nm UV absorbance of the unbound flow-through was assayed to determine the total amount of peptide remaining bound onto the membrane. […] To alter the pH, the ^65Zn incubation was carried out in the presence of 100 mM buffer: MOPS (pH 6.5-7.0), MES (pH 5.0-6.0), acetate (pH 3.5-4.5). The dot-blot apparatus was washed with detergent and EDTA (50 mM) then rinsed and siliconized between use.\nAliquots of Aβ were incubated (60 min) with ^65Zn^2+ in the presence of varying concentrations of unlabeled Zn^2+ (0.01-50 μM total). Values shown are means±S.D., n≧3. […] (FIG. 1b) depicts specificity of the Zn^2+ binding site for various metals. Aβ was incubated (60 min) with ^65 Zn^2+ (157 nM, 138,000 cpm) and competing unlabeled metal ions (50 μM total). […] Percent binding of total counts ^65Zn^2+/min added is corrected for the amounts (in nanomoles) of peptides adhering to the membrane. […] 157 nM ^65Zn (138,000 cpm) is used in this experiment to probe immobilized peptide (1.6 nmol)."}, "[4]": {"system": "trypsin", "experiment": "Trypsin activity, Z-Arg-amido-4-methylcoumarin fluorescent cleavage product", "format": "biochemical", "conditions": "Zn^2+ up to 100 μM in TBS", "procedure": "as §1"}}}
{"smiles": "[Zn+2]", "note": "[Zn^2+, zinc]", "values": [{"measurement": "inhibition of Aβ hydrolysis by trypsin", "setting": "[1]", "value": "complete inhibition"}, {"measurement": "induction of aggregation of human Aβ1-40 among metal ions tested", "setting": "[2]", "value": "induce significant aggregation"}, {"measurement": "competition of unlabeled metal ion with ^65Zn^2+ for Aβ", "setting": "[3]", "value": "capable of competing off the label"}, {"measurement": "effects on the activity of trypsin itself", "setting": "[4]", "value": "negligible"}]}
